Series [1] deals with T1, E. coli FabF (β-ketoacyl-ACP synthase II) (Escherichia coli, UniProt P0AAI5).
T1 construct: made in house
As to the kind of experiment: FabF radiochemical condensing enzyme assay with myristoyl-ACP. The format is biochemical. As to the method:
(§1) FabB and FabF radiochemical assay was performed using the scheme devised by Garwin et al. (11) using myristoyl-ACP as the substrate. The assays contained 100 μM ACP, 0.3 mM dithiothreitol, 1 mM EDTA, 0.1 M potassium phosphate buffer, pH 6.8, 50 μM [^14C]malonyl-CoA (specific activity 55 Ci/mole), 100 μM myristoyl-ACP, FabD (0.3 μg of protein), in a final volume of 20 μl. A mixture of ACP, 0.3 mM DTT, 1 mM EDTA, and the buffer was incubated at 37° C. for 30 min to ensure complete reduction ACP, and then the remaining components (except the condensing enzyme) were added. The mixture was then aliquoted into the assay tubes and the reaction was initiated by the addition of FabB or FabF. The reaction mixture was incubated at 37° C. for 20 min, then 400 μl of reducing agent (0.1 M K2HPO4, 0.4 M KCl, 30% tetrahydrofuran, and 5 mg/ml sodium borohydride) was added into the reaction tubes and incubated for 40 min.
(§2) Finally, 400 μl of toluene was added, vigorously mixed, and 300 μl of upper phase solution was counted in 3 ml of scintillation cocktail.

Series [2] concerns the target T2, E. coli FabB (β-ketoacyl-ACP synthase I) (Escherichia coli, UniProt P0A953).
T2 construct: made in house; host or cells: pET-15b-FabB expression vector; Novagen expression strains
Put plainly: FabB radiochemical condensing enzyme assay with myristoyl-ACP. It is filed as biochemical. As to the method: as §1, §2

The target of series [3] is T3, E. coli FabH (β-ketoacyl-ACP synthase III) (Escherichia coli, UniProt P0A6R0).
T3 construct: made in house
T3 sequence (P0A6R0 whole entry): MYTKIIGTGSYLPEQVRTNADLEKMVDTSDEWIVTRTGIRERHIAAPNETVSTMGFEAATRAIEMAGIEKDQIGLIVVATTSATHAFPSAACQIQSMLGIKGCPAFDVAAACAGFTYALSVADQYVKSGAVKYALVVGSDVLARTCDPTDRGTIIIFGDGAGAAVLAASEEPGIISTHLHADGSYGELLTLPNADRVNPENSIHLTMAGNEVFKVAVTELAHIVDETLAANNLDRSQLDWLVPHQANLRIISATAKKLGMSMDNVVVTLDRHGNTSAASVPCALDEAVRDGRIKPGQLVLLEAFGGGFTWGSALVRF
As to the kind of experiment: FabH filter disc assay with [1-14C]acetyl-CoA. It is filed as biochemical. The procedure:
A filter disc assay was used to assay FabH activity with [1-^14C]acetyl-CoA as described previously (15,18). The assays contained 100 μM ACP, 1 mM β-mercaptoethanol, 45 μM [^14C]acetyl-CoA (specific activity, 52.0 Ci/mole), and 50 μM malonyl-CoA, E. coli FabD (0.3 μg) and 0.1 M sodium phosphate buffer (pH 7.0) in a final volume of 40 μl. The reaction was initiated by the addition of FabH and the mixture was incubated at 37° C. for 12 min. A 35-μl aliquot was removed and deposited on a Whatman 3MM filter disc. The discs were washed with three changes (20 ml/disc for 20 min) of ice-cold trichloroacetic acid. The concentration of the trichloroacetic acid was reduced from 10 to 5 to 1% in each successive wash. The filters were dried and counted in 3 ml of scintillation cocktail.

Series [4] deals with T4, FabB (Escherichia coli, UniProt P0A953).
T4 construct: made in house; host or cells: pET-15b-FabB expression vector; Novagen expression strains
T4 sequence (P0A953 whole entry): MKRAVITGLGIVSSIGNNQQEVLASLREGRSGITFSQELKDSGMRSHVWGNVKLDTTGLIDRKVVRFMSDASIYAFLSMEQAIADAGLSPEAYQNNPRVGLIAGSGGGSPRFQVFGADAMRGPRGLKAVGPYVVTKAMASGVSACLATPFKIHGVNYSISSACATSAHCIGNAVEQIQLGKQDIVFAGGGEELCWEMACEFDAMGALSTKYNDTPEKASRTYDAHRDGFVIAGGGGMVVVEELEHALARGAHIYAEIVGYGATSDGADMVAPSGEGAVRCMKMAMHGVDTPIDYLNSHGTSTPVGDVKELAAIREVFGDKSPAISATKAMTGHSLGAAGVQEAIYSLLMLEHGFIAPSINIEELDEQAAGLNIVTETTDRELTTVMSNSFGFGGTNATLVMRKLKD
Put plainly: Time course of FabB inhibition (reversibility). It is filed as biochemical. The following applies: for Reversibility of FabB inhibition: 20 μM TLM or 3 μM cerulenin, with or without 30 min preincubation. The procedure: The time course for the inhibition of FabB activity under five experimental conditions was determined to address the reversibility of the antibiotics. Time course for the FabB reaction in the absence of inhibitors (▾), in the presence of 20 μM TLM (●) or 3 μM cerulenin (∘). FabB was preincubated with either 20 μM TLM (▪) or 3 μM cerulenin (□) for 30 min prior to initiation of the reaction by the addition of the other substrates. FabB activity was measured using the radiochemical assay with myristoyl-ACP as the substrate as described under “Experimental Procedures” in the Example below.
as §1, §2
This hypothesis was examined by comparing the kinetics of TLM inhibition to that of cerulenin (FIG. 2), which is known to form a covalent complex with the active site cysteine of the condensing enzymes. […] This indicates the formation of the irreversible FabB-cerulenin binary complex. The same two types of time course experiments were performed with TLM (FIG. 2A).

Series [5] concerns the target B. subtilis FabF (Bacillus subtilis, UniProt O34340). As to the kind of experiment: Inhibition of B. subtilis FabF in vitro. It is filed as biochemical.
For series [6] the following is noted: cited from earlier work.
The subject of series [7] is urinary tract and intraperitoneal bacterial infections. To be noted: mice; cited from earlier work.
Series [8] has as its target T5, FabB[H333N] (Escherichia coli, UniProt P0A953, H333N).
T5 construct: made in house; host or cells: pET-15b-FabB expression vector; Novagen expression strains
T5 sequence (P0A953 1-406 H333N): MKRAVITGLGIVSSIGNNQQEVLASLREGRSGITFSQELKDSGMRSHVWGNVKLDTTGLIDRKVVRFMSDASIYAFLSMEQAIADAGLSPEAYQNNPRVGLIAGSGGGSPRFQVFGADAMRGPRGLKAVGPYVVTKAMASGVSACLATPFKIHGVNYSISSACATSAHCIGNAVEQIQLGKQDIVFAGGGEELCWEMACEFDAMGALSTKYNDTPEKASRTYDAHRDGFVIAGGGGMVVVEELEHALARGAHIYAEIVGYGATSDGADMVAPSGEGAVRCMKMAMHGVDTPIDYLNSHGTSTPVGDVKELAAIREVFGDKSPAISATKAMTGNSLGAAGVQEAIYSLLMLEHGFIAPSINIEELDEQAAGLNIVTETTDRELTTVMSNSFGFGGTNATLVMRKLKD
As to the kind of experiment: FabB[H333N] mutant radiochemical assay with 14:0-ACP primer. The format is biochemical. The following applies: inhibition by cerulenin. As to the method: as §1, §2
Construction of the FabB[H333N] mutant—A portion of the fabB gene was amplified using the polymerase chain reaction with two specific primers. The first primer introduced the desired mutation, and extended over a unique AgeI site (5′-[…]-3′, SEQ ID NO:3). The second primer created a BamHI site downstream of the stop codon (5′-[…]-3′, SEQ ID NO:4). […]

Molecules are shown by their SMILES. “Also recorded” adds a separate entry of the source. Where two headings read alike, the source gives them in different places.

T2 sequence (P0A953 whole entry): as the sequence (P0A953 whole entry) above
T1 sequence (P0AAI5 whole entry): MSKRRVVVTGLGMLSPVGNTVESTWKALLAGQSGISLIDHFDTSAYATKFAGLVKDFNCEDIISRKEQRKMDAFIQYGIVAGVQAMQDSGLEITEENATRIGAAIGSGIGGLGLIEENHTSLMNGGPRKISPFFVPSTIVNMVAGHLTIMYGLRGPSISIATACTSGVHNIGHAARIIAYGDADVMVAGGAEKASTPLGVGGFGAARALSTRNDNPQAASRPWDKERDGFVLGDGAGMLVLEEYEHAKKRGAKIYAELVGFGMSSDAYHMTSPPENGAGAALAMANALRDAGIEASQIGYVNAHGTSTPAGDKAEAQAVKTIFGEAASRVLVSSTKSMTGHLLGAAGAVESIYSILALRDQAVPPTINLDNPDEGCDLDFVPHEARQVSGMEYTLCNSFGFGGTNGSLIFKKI
B. subtilis FabF, sequence (O34340 whole entry): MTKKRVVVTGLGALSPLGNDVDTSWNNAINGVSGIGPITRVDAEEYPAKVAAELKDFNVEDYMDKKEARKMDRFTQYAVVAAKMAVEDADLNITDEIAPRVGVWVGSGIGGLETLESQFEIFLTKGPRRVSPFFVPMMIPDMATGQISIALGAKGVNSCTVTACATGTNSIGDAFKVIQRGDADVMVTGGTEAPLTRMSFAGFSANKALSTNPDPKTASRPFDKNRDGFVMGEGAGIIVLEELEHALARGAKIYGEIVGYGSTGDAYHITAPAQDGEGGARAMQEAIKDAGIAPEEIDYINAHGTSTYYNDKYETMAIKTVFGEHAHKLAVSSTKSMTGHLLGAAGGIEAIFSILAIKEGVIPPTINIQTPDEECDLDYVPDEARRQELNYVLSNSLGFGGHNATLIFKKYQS

Turning to `C=C/C(C)=C/C1(C)SC(=O)C(C)=C1O` (stereo in doubt) [TLM, (4S)(2E,5E)-2,4,6-trimethyl-3-hydroxy-2,5,7-octatriene-4-thiolide], the IC50 in series [1] was determined as 6 µM; in series [2] it was 25 µM; in series [3], 110 µM. In addition, the “Reversibility of FabB inhibition” value in series [4] is reported as “reversible inhibitor; also recorded: reversibly inhibited”. Besides, the “Inhibition of B. subtilis FabF in vitro” value in series [5] was “very weak inhibitor”. The Toxicity to mice result in series [6] was “not toxic”. For the same compound, the “Protection against urinary tract and intraperitoneal bacterial infections” value in series [7] is “significant protection”.
Turning to `C/C=C/C/C=C/CCC(=O)[C@H]1O[C@H]1C(N)=O` [cerulenin, (2R,3S)-2,3-epoxy-4-oxo-7,10-dodecandienolyamide], the IC50 was 20 µM in series [1] (purified E. coli enzyme, myristoyl-ACP substrate, read-out: IC50 FabF); 3 µM in series [2] (purified E. coli enzyme, myristoyl-ACP (14:0-ACP) substrate, read-out: IC50 FabB); greater than 700 µM in series [3] (purified E. coli enzyme, acetyl-CoA primer, read-out: IC50 FabH); 30 µM in series [8]. In addition, the “Sensitivity of FabH to inhibitor” value in series [3] is “essentially resistant”. In addition, the “Product formation after preincubation of inhibitor with FabB” value in series [4] (3 μM cerulenin preincubated 30 min, reaction initiated with substrates) is listed as “no discernable product formation”. Besides, the “Reversibility of FabB inhibition” value in series [4] is listed as “slow-binding, irreversible inhibitor; also recorded: irreversibly inhibited”.

The values above are taken from patent publication US20040161813A1, “Structure of beta-ketoacyl-[acyl carrier protein] synthases complexed with inhibitors and methods of use thereof” (St. Jude Children's Research Hospital, priority 2000, published 2004).
